Test results reported in publication PMC7583847 (2020).

Tests used:
Experiment in all cases: UV melting at 260 nm
[1] = system: pApU (RNA, polymer) A/U; conditions: Na+ (sodium cacodylate, I = 0.05 M); sodium cacodylate pH 7.0; r = [compound]/[polynucleotide] = 0.2; per base
[2] = system: polyAH+-polyAH+ (RNA, polymer, protonated adenines (pH 5)) A; conditions: Na+ (sodium cacodylate, I = 0.05 M); sodium cacodylate pH 5.0; r = 0.2; second transition of poly A-poly U (free Tm 80.1 °C); per base
[3] = system: p(dAdT)2 (DNA, polymer) AT; conditions: Na+ (sodium cacodylate, I = 0.05 M); sodium cacodylate pH 7.0; r = [compound]/[polynucleotide] = 0.2; per base

SMILES	ΔTm [1] [°C]	ΔTm [2] [°C]	ΔTm [3] [°C]
COC(=O)C(Cc1cn(CCCCN2C=CC(=Cc3sc4ccc(Br)cc4[n+]3C)c3ccccc32)nn1)NC(=O)c1ccc(C(=O)NC(=N)N)[nH]1 (stereo not drawn)	3.0 ± 0.5	1.0 ± 0.5	1.1 ± 0.5
COC(=O)C(Cc1cn(CCCC[n+]2c(C=C3C=CN(C)c4ccccc43)sc3ccc(Br)cc32)nn1)NC(=O)c1ccc(C(=O)NC(=N)N)[nH]1 (stereo not drawn)	1.0 ± 0.5	1.0 ± 0.5	0.3 ± 0.5
